Patent publication US20110009265A1, “Herbicidal Compositions Comprising Pyroxasulfone” (BASF SE, priority 2008, published 2011)
Read-outs that look alike come from different tables or passages of the source.

How the values were obtained:
Thlaspi arvense (THLAR) [1] = assay: greenhouse pre-emergence herbicidal activity; assay type: in vivo; details: read-out: observed % activity; for inhibition at 12.5 g/ha: 12.5 g ai/ha; for inhibition at 50 g/ha: 50 g ai/ha
Excerpt: (§1) For the pre-emergence treatment, directly after sowing the active compounds, which had been suspended or emulsified in water, were applied by means of finely distributed nozzles. The containers were irrigated gently to promote germination and growth and subsequently covered with transparent plastic hoods until plant had rooted. This cover caused uniform germination of the tests plants, unless this was adversely affected by active compounds.
(§2) The respective herbicides A and/or safener were formulated as 10% by weight strength suspension concentrate and introduced to the spray liquor with the amount of solvent system used for applying the active compound. Herbicide B and/or safener were used as commercially available formulations and introduced to the spray liquor with the amount of solvent system used for applying the active compound. In the examples, the solvent used was water.
(§3) Pendimethalin was used as a commercial aqueous suspension concentrate having an active ingredient concentration of 400 g/l.
(§4) The test period extended over 21 days. During this time, the plants were tended, and their response to the treatments with active compound was evaluated.
(§5) The evaluation for the damage caused by the chemical compositions was carried out using a scale from 0 to 100%, compared to the untreated control plants. Here, 0 means no damage and 100 means complete destruction of the plants.
(§6) The value E, which is to be expected if the activity of the individual compounds is just additive, was calculated using the method of S. R. Colby (1967) “Calculating synergistic and antagonistic responses of herbicide combinations”, Weeds 15, p. 22 ff.
(§7) where • X=effect in percent using herbicide A at an application rate a; • Y=effect in percent using herbicide B at an application rate b; • E=expected effect (in %) of A+B at application rates a+b.
(§8) If the value observed in this manner is higher than the value E calculated according to Colby, a synergistic effect is present.

Galium aparine (GALAP) = assay: greenhouse pre-emergence herbicidal activity; assay type: in vivo; details: read-out: observed % activity; for inhibition at 6.25 g/ha: 6.25 g ai/ha; for inhibition at 25 g/ha: 25 g ai/ha; for inhibition at 50 g/ha: 50 g ai/ha
Excerpt: as §1, §2, §3, §4, §5, §6, §7, §8

Veronica persica (VERPE) = assay: greenhouse pre-emergence herbicidal activity; assay type: in vivo; details: read-out: observed % activity; for inhibition at 6.25 g/ha: 6.25 g ai/ha; for inhibition at 12.5 g/ha: 12.5 g ai/ha; for inhibition at 25 g/ha: 25 g ai/ha; for inhibition at 50 g/ha: 50 g ai/ha
Excerpt: as §1, §2, §3, §4, §5, §6, §7, §8

[2] = test system: Phalaris canariensis (PHACA); assay: greenhouse pre-emergence herbicidal activity; assay type: in vivo; details: 6.25 g ai/ha, read-out: observed % activity
Excerpt: as §1, §2, §3, §4, §5, §6, §7, §8

Bromus inermis (BROIN) = assay: greenhouse pre-emergence herbicidal activity; assay type: in vivo; details: read-out: observed % activity; for inhibition at 6.25 g/ha: 6.25 g ai/ha; for inhibition at 12.5 g/ha: 12.5 g ai/ha; for inhibition at 25 g/ha: 25 g ai/ha; for inhibition at 50 g/ha: 50 g ai/ha
Excerpt: as §1, §2, §3, §4, §5, §6, §7, §8

Avena fatua (AVEFA) = assay: greenhouse pre-emergence herbicidal activity; assay type: in vivo; details: 50 g ai/ha, read-out: observed % activity
Excerpt: as §1, §2, §3, §4, §5, §6, §7, §8

[3] = test system: Capsella bursa-pastoris (CAPBP); assay: greenhouse pre-emergence herbicidal activity; assay type: in vivo; details: read-out: observed % activity; for inhibition at 25 g/ha: 25 g ai/ha; for inhibition at 50 g/ha: 50 g ai/ha
Excerpt: as §1, §2, §3, §4, §5, §6, §7, §8

Thlaspi arvense (THLAR) [4] = assay: greenhouse post-emergence herbicidal activity; assay type: in vivo; details: for inhibition at 100 g/ha: Thlaspi arvense, read-out: observed % activity
Excerpt: (§9) For the post-emergence treatment, the test plants were first grown to a height of 3 to 20 cm, depending on the plant habit, and only then treated. Here, the herbicidal compositions were suspended or emulsified in water as distribution medium and sprayed using finely distributing nozzles.
as §2, §3, §4, §5, §6, §7, §8

[5] = test system: Alopecurus myosuroides (ALOMY); assay: greenhouse post-emergence herbicidal activity; assay type: in vivo; details: 25 g ai/ha; for inhibition at 25 g/ha: Alopecurus myosuroides, read-out: observed % activity
Excerpt: as §9, §2, §3, §4, §5, §6, §7, §8

[6] = test system: Capsella bursa-pastoris (CAPBP); assay: greenhouse post-emergence herbicidal activity; assay type: in vivo; details: 25 g ai/ha, 20 DAT
Excerpt: as §9, §2, §3, §4, §5, §6, §7, §8

[7] = test system: Amaranthus retroflexus (AMARE); assay: greenhouse post-emergence herbicidal activity; assay type: in vivo; details: 13 g ai/ha, 20 DAT
Excerpt: as §9, §2, §3, §4, §5, §6, §7, §8

Viola arvensis (VIOAR) = assay: greenhouse post-emergence herbicidal activity; assay type: in vivo; details: 25 g ai/ha, 20 DAT
Excerpt: as §9, §2, §3, §4, §5, §6, §7, §8

[8] = test system: Apera spica-venti (APESV); assay: greenhouse post-emergence herbicidal activity; assay type: in vivo; details: 50 g ai/ha, 20 DAT
Excerpt: as §9, §2, §3, §4, §5, §6, §7, §8

Stellaria media (STEME) = assay: greenhouse post-emergence herbicidal activity; assay type: in vivo; details: 20 DAT
Excerpt: as §9, §2, §3, §4, §5, §6, §7, §8

Lamium purpureum (LAMPU) = assay: greenhouse post-emergence herbicidal activity; assay type: in vivo; details: 50 g ai/ha, 20 DAT
Excerpt: as §9, §2, §3, §4, §5, §6, §7, §8

[9] = test system: Matricaria inermis (MATIN); assay: greenhouse post-emergence herbicidal activity; assay type: in vivo; details: 50 g ai/ha, read-out: observed % activity
Excerpt: as §9, §2, §3, §4, §5, §6, §7, §8

harmful plants = details: known from Y. Yamaji et al., 2006; cited from earlier work

## Cn1nc(C(F)(F)F)c(CS(=O)(=O)C2=NOC(C)(C)C2)c1OC(F)F [pyroxasulfone, 3-[5-(difluoromethoxy)-1-methyl-3-(trifluoromethyl)pyrazol-4-ylmethylsulfonyl]-4,5-dihydro-5,5-dimethyl-1,2-oxazole]
Thlaspi arvense (THLAR) [1]; 192 h, 8 DAT
  inhibition at 12.5 g/ha: 40%
  inhibition at 50 g/ha: 60%
Thlaspi arvense (THLAR) [1]; 480 h, 20 DAT
  inhibition at 12.5 g/ha: 30%
  inhibition at 50 g/ha: 80%
Galium aparine (GALAP); 192 h, 8 DAT
  inhibition at 6.25 g/ha: 30%
  inhibition at 25 g/ha: 60%
  inhibition at 50 g/ha: 60%
Galium aparine (GALAP); 480 h, 20 DAT
  inhibition at 6.25 g/ha: 20%
  inhibition at 25 g/ha: 75%
  inhibition at 50 g/ha: 80%
Veronica persica (VERPE); 192 h, 8 DAT
  inhibition at 6.25 g/ha: 45%
  inhibition at 12.5 g/ha: 60%
  inhibition at 25 g/ha: 60%
  inhibition at 50 g/ha: 60%
Veronica persica (VERPE); 480 h, 20 DAT
  inhibition at 6.25 g/ha: 70%
  inhibition at 12.5 g/ha: 90%
  inhibition at 25 g/ha: 85%
  inhibition at 50 g/ha: 90%
[2]; 192 h, 8 DAT
  inhibition at 6.25 g/ha: 40%
[2]; 480 h, 20 DAT
  inhibition at 6.25 g/ha: 40%
Bromus inermis (BROIN); 192 h, 8 DAT
  inhibition at 6.25 g/ha: 40%
  inhibition at 12.5 g/ha: 50%
  inhibition at 25 g/ha: 50%
  inhibition at 50 g/ha: 60%
Bromus inermis (BROIN); 480 h, 20 DAT
  inhibition at 6.25 g/ha: 35%
  inhibition at 12.5 g/ha: 60%
  inhibition at 25 g/ha: 60%
  inhibition at 50 g/ha: 75%
Avena fatua (AVEFA); 192 h, 8 DAT
  inhibition at 50 g/ha: 70%
Avena fatua (AVEFA); 480 h, 20 DAT
  inhibition at 50 g/ha: 85%
[3]; 192 h, 8 DAT
  inhibition at 25 g/ha: 60%
  inhibition at 50 g/ha: 60%
[3]; 480 h, 20 DAT
  inhibition at 25 g/ha: 95%
  inhibition at 50 g/ha: 95%
Thlaspi arvense (THLAR) [4]; 25 g ai/ha, 20 DAT
  observed activity in % destruction 20 days after treatment: 50%
Thlaspi arvense (THLAR) [4]; 100 g ai/ha, 20 DAT
  observed activity in % destruction 20 days after treatment: 80%
Thlaspi arvense (THLAR) [4]; 168 h, 100 g ai/ha, 7 DAT
  inhibition at 100 g/ha: 70%
Thlaspi arvense (THLAR) [4]; 480 h, 100 g ai/ha, 20 DAT
  inhibition at 100 g/ha: 80%
[5]; 20 DAT
  observed activity in % destruction 20 days after treatment: 65%
[5]; 168 h, 7 DAT
  inhibition at 25 g/ha: 25%
[5]; 480 h, 20 DAT
  inhibition at 25 g/ha: 65%
[6]
  observed activity in % destruction 20 days after treatment: 35%
[7]
  observed activity in % destruction 20 days after treatment: 45%
Viola arvensis (VIOAR)
  observed activity in % destruction 20 days after treatment: 0%
[8]
  observed activity in % destruction 20 days after treatment: 85%
Stellaria media (STEME); 50 g ai/ha
  observed activity in % destruction 20 days after treatment: 85%
Stellaria media (STEME); 100 g ai/ha
  observed activity in % destruction 20 days after treatment: 95%
Lamium purpureum (LAMPU)
  observed activity in % destruction 20 days after treatment: 70%
[9]; 168 h, 7 DAT
  inhibition at 50 g/ha: 40%
[9]; 480 h, 20 DAT
  inhibition at 50 g/ha: 0%
Harmful plants
  post-emergence activity: only poor post-emergence activity
